Laboratory results published in patent US6627772B2, “Preparation of N-[2-(carboxymethoxy) ethyl]-N-(carboxymethyl) glycine” (The Dow Chemical Company, priority 1999, dated 2003).

Legend:
[1] = Calcium oxalate titration (calcium chelation capacity); assay type: physicochemical
Experimental: The applicability of N-[2-(carboxymethoxy)ethyl]-N-(carboxymethyl)glycine for use in hard surface cleaners, is measured by the calcium oxalate titration.
For titration with calcium oxalate, N-[2-(carboxymethoxy)ethyl]-N-(carboxymethyl)glycine (between 1 to 2 millimoles) is placed in a 60 mL beaker. After the addition of 30 mL deionized water and 5 mL of a 3% ammonium oxalate solution, the pH is slowly brought to about 10 by the addition of 20% sodium hydroxide while stirring. The pH is then adjusted to about 11.6 with sodium hydroxide and the solution is titrated with 0.1 M CaCl2 to the first permanent turbidity. The chelation valve is then determined from the mL of titrant used based on the following calculation.
Chelation Value=(mL titrant used×molarity titrant)×100 mg CaCO3 per mmole÷sample wt. in grams×activity of sample (as acid form)
The chelation value is the mg of CaCO3 that can be chelated by one active gram of a chelant, such as N-[2-(carboxymethoxy)ethyl]-N-(carboxymethyl)glycine (IX).
The turbidity produced in the oxalate titration is due to the formation of calcium oxalate. The results for the titration of N-[2-(carboxymethoxy)ethyl]-N-(carboxymethyl)glycine in the presence of oxalate is compared with iminodiacetic acid (IDA) and given in Table II below.

[2] = Copper titration with Murexide indicator; assay type: physicochemical; settings: 2 g (0.009 mmol) in 100 mL water, 0.01 molar copper chloride, approximately pH 8, sodium acetate buffer
Experimental: Copper titration value is used to measure the extent of biodegradation of the chelating agents during the procedure. Titration is performed using ammonium purpurate (indicator for complexometric titration, commercially available from Aldrich Chemical Co., Inc. under the trade designation Murexide) at approximately pH 8, and using sodium acetate as buffer. Titration of […] N-[2-(carboxymethoxy)ethyl]-N-(carboxymethyl)glycine (0.009 mmol) in 100 mL water with 0.01 molar copper chloride gives an endpoint of 0.99 mL, representing a 1:1 chelation of copper. Analysis is performed daily for a period of 28 days.

- Chelation value compared with IDA (in words) [1]: far superior to IDA
- Chelation Value ([1]; pH about 11.6, 0.1 M CaCl2 to first permanent turbidity): 423 mg of CaCO3 per active gram of
- Copper titration endpoint [2]: 0.99 mL
SMILES: O=C(O)COCCN(CC(=O)O)CC(=O)O [(IX), N-[2-(carboxymethoxy)ethyl]-N-(carboxymethyl)glycine]
